Earlier results on 11 molecules are cited in patent US6068858A, “Methods of making nanocrystalline formulations of human immunodeficiency virus (HIV) protease inhibitors using cellulosic surface stabilizers” (Elan Pharma International Limited, priority 1999, dated 2000).

System in one series: not given
Conditions: as reported in literature.
`CSC[C@H](NC(=O)COc1cccc2cnccc12)C(=O)N[C@@H](Cc1ccccc1)[C@H](O)C(=O)N1CSC[C@H]1C(=O)NC(C)(C)C` [KNI-272]: the oral bioavailability result is listed as “low oral bioavailability”.
For `N#Cc1ccc(S(=O)(=O)Nc2cccc(C(c3c(O)c4c(oc3=O)CCCCCC4)C3CC3)c2)cc1` (stereo not shown) [U-103,017], the oral bioavailability result was “low oral bioavailability”.

Still in this series, the particulars now being: in vivo, po.
As to `CC(C)c1nc(CN(C)C(=O)N[C@H](C(=O)N[C@@H](Cc2ccccc2)C[C@H](O)[C@H](Cc2ccccc2)NC(=O)OCc2cncs2)C(C)C)cs1` [ABT-538], the oral bioavailability entry is on record as “low oral bioavailability”.
With `Cc1c(O)cccc1C(=O)N[C@@H](CSc1ccccc1)[C@H](O)CN1C[C@H]2CCCC[C@H]2C[C@H]1C(=O)NC(C)(C)C` [AG1343], the oral bioavailability entry was “low oral bioavailability”.
As to `Nc1cccc(CN2C(=O)N(Cc3cccc(N)c3)[C@H](Cc3ccccc3)[C@H](O)[C@@H](O)[C@H]2Cc2ccccc2)c1` [DMP-450], the oral bioavailability entry is listed as “low oral bioavailability”.
As to `CC(C)(C)NC(=O)[C@@H]1CN(Cc2cccnc2)CCN1C[C@@H](O)C[C@@H](Cc1ccccc1)C(=O)N[C@H]1c2ccccc2C[C@H]1O` [MK-639], the oral bioavailability result is reported as “low oral bioavailability”.
As for `CC(C)CN(C[C@@H](O)[C@H](Cc1ccccc1)NC(=O)O[C@H]1CCOC1)S(=O)(=O)c1ccc(N)cc1` [VX-478], the oral bioavailability entry is “low oral bioavailability”.
For `CC(C)(C)NC(=O)[C@@H]1C[C@@H]2CCCC[C@@H]2CN1C[C@@H](O)[C@H](Cc1ccccc1)NC(=O)[C@H](CC(N)=O)NC(=O)c1ccc2ccccc2n1` [saquinavir], the oral bioavailability result was “low oral bioavailability”.

In another series the test system is HIV RT. Conditions: background statement.
Take `O[C@H](CS)[C@H](O)CS` (racemic) [ddT, dithiothreitol]: the “effectiveness in treating HIV infection” value was “only modestly effective”.
As to `O=c1[nH]cnc2c1ncn2[C@H]1CC[C@@H](CO)O1` [ddI, didanosine], the “effectiveness in treating HIV infection” value is on record as “only modestly effective”.

Still in this series, the particulars now being: background statement; interfere with cellular enzymes.
Turning to `O[C@H](CS)[C@H](O)CS` (racemic) [ddT, dithiothreitol], the side effects entry is on record as “severe side effects”.
`Cc1cn([C@H]2C[C@H](N=[N+]=[N-])[C@@H](CO)O2)c(=O)[nH]c1=O` [AZT, azidothymidine]: the side effects entry is recorded as “severe side effects”.
In the case of `O=c1[nH]cnc2c1ncn2[C@H]1CC[C@@H](CO)O1` [ddI, didanosine], the side effects entry is given as “severe side effects”.
